# Data from patent US7772246B2 (Pfizer Inc., priority 2007, dated 2010).
# pIC50: −log10 of the molar value.
# Target: T1, b-Raf (Homo sapiens, UniProt P15056, V600E)
# T1 construct: endogenous in cells; host or cells: A2058 human melanoma cells
# Experiment: Raf cellular assay (phospho-Mek1/2 ELISA in A2058 cells)
# Type: cell-based
# Conditions: Table 3; human melanoma A2058 cells (b-Raf mutation), Mek1/2 Ser217/221 phosphorylation, 1 hour incubation; read-out: pMEK IC50
# Experimental: Compounds of the present invention were evaluated for potency against b-Raf using a cellular assay as follows. The activity of Raf kinases in cells is determined by measuring the level of phosphorylation of Mek1/2 at serine 217/221, the site phosphorylated by Raf kinases in vivo. Mek1/2 Ser phosphorylation is measured using anti-phospho-Mek1/2 antibodies (Cell Signaling #9121) in an ELISA format.
# Healthy growing human melanoma A2058 cells (harboring a b-Raf mutation) are used for the assay. A2058 cells are grown in 10% FBS DMEM medium. When the cells are near 85%+confluence, the cells are rinsed with PBS once and trypsinized with trypsin/EDTA for 3 minutes. The cells are resuspended in 10% FBS DMEM and are centrifuged down at 1000 rpm for 5 minutes. The cells are resuspended in 10% FBS DMEM and counted on a cell counter. The cells are seeded at 50,000 cells/well in a volume of 100 μL/well in 10% FBS DMEM in a 96 well flat-bottom plate. The negative control wells receive only 100 μL of 10% FBS DMEM medium without cells. The plate is incubated overnight in a cell culture incubator with 5% CO2 at 37° C.
# On day 2, testing compounds are prepared in 10% FBS DMEM medium and serially diluted at 1:3 for 11 test concentrations. Each concentration of the compounds is tested in duplicate. The compound solutions are added at 25 μL/well to the corresponding wells in the cell plate, and 25 μL/well of the vehicle (0.5% DMSO in 10% FBS DMEM) is added to the negative control wells (no cells) and the positive control wells (cells without compounds). The plate is incubated for 1 hour in a cell culture incubator with 5% CO2 at 37° C. After 1 hour of incubation, the medium is removed, 100 μL/well of cell lysis buffer is added into the cell plate, and the plate is shaken for 15 minutes at room temperature. After 15 minutes, the cell lysates are transferred to an ELISA plate (pre-coated with anti-Mek1 anti-body, Cell Signaling #2352), and the plate is incubated with gentle shaking for 2 hours at room temperature. After 2 hours, the contents of the wells are aspirated and the wells are washed 4 times with wash buffer. 100 μL of phospho-Mek1/2 detection antibody (Cell Signaling #9121) is added into each well and the plate is incubated with gentle shaking for 1 hour at room temperature. After 1 hour, the wells are aspirated and washed 4 times with wash buffer. 100 μL of anti-rabbit IgG HRP-linked antibody (Cell Signaling #7074) is added to each well, and the plate is incubated with gentle shaking for 1 hour at room temperature. After 1 hour, the contents of the wells are aspirated and the wells are washed 4 times with wash buffer. 100 μL of TMB substrate solution (Sigma #T0440) is added into each well, and the plate is incubated with gentle shaking at room temperature for 10 to 20 minutes. After color development, 100 μL of stop solution (1N hydrochloric acid) is added to each well to terminate color development. The plate is read at 450 nm on an ELISA plate reader.
# T1 sequence (P15056 whole entry V600E): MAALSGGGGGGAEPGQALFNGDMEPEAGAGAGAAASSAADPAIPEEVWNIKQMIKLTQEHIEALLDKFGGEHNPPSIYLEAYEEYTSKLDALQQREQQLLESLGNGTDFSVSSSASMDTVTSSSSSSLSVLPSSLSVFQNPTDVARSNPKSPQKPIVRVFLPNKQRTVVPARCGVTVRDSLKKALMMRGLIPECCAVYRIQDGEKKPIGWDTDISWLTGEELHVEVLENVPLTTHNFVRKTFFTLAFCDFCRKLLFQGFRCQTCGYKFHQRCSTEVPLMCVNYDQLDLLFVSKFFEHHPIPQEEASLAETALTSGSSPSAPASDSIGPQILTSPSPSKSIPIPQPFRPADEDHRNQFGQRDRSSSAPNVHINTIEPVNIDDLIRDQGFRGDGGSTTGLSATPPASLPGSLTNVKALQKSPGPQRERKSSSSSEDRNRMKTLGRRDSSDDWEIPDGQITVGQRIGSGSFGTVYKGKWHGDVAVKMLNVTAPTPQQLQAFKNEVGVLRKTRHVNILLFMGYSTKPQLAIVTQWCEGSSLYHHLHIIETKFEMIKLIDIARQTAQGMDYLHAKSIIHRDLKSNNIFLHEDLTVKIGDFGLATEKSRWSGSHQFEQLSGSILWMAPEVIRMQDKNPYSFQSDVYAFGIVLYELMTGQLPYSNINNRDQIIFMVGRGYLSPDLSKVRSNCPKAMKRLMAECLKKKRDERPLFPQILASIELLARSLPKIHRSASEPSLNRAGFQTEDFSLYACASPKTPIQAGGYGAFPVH
row,pIC50,Structure (SMILES)
1,7.06,"CC(C)n1cc(-c2ccnc(NC[C@H](C)O)n2)c(-c2cnc(N)c(OC(F)F)c2)n1 [Example B-39, (2S)-1-[(4-{3-[6-amino-5-(difluoromethoxy)-pyridin-3-yl]-1-isopropyl-1H-pyrazol-4-yl}pyrimidin-2-yl)amino]propan-2-ol]"
2,7.32,"Cc1c[nH]c2ncc(-c3nn(C(F)F)cc3-c3ccnc(N)n3)cc12 [Example B-40, 4-[1-(difluoromethyl)-3-(3-methyl-1H-pyrrolo[2,3-b]pyridin-5-yl)-1H-pyrazol-4-yl]pyrimidin-2-amine]"
3,7.11,"COc1cc(-c2nn(C(F)F)cc2-c2ccnc(NC[C@H](C)O)n2)cnc1N [Example B-41, (2S)-1-({4-[3-(6-amino-5-methoxypyridin-3-yl)-1-(difluoromethyl)-1H-pyrazol-4-yl]pyrimidin-2-yl}amino)propan-2-ol]"
4,5.25,"CC(C)n1cc(-c2ccnc(NC[C@H](C)O)n2)c(-c2cnc(N)nc2)n1 [Example B-42, (2S)-1-({4-[3-(2-aminopyrimidin-5-yl)-1-isopropyl-1H-pyrazol-4-yl]pyrimidin-2-yl}amino)propan-2-ol]"
5,7.36,"Nc1nccc(-c2cn(C(F)F)nc2-c2cnc3[nH]cc(Cl)c3c2)n1 [Example B-43, 4-[3-(3-chloro-1H-pyrrolo[2,3-b]pyridin-5-yl)-1-(difluoromethyl)-1H-pyrazol-4-yl]pyrimidin-2-amine]"
6,8.86,"Cc1c[nH]c2ncc(-c3nn(C(F)F)cc3-c3ccnc(NCCC#N)n3)cc12 [Example B-44, 3-({4-[1-(difluoromethyl)-3-(3-methyl-1H-pyrrolo[2,3-b]pyridin-5-yl)-1H-pyrazol-4-yl]pyrimidin-2-yl}amino)-propanenitrile]"
7,6.50,"CC(C)n1cc(-c2ccnc(NC[C@H](C)O)n2)c(-c2cnc(N)c(O)c2)n1 [Example B-45, 2-amino-5-[4-(2-{[(2S)-2-hydroxypropyl]-amino}pyrimidin-4-yl)-1-isopropyl-1H-pyrazol-3-yl]pyridin-3-ol]"
8,7.80,"COc1cncc(-c2nn(CC(F)F)cc2-c2ccnc(NCCC#N)n2)c1 [Example B-46, 3-({4-[1-(2,2-difluoroethyl)-3-(5-methoxypyridin-3-yl)-1H-pyrazol-4-yl]pyrimidin-2-yl}amino)propanenitrile]"
9,7.06,"Cc1cc(-c2nn(C(C)(C)CO)cc2-c2ccnc(NCCC#N)n2)cnc1N [Example B-47, 3-({4-[3-(6-amino-5-methylpyridin-3-yl)-1-(2-hydroxy-1,1-dimethylethyl)-1H-pyrazol-4-yl]pyrimidin-2-yl}amino)-propanenitrile]"
10,7.52,"CC(C)(CO)n1cc(-c2ccnc(NCC(F)F)n2)c(-c2cnc3[nH]ccc3c2)n1 [Example B-48, 2-[4-{2-[(2,2-difluoroethyl)amino]pyrimidin-4-yl}-3-(1H-pyrrolo[2,3-b]pyridin-5-yl)-1H-pyrazol-1-yl]-2-methylpropan-1-ol]"
11,7.65,"COc1cncc(-c2nn(C(C)(C)CO)cc2-c2ccnc(NCCC#N)n2)c1 [Example B-49, 3-(4-(1-(1-hydroxy-2-methylpropan-2-yl)-3-(5-methoxypyridin-3-yl)-1H-pyrazol-4-yl)pyrimidin-2-ylamino)propanenitrile]"
12,8.14,"CC(C)n1cc(-c2ccnc(NCCC#N)n2)c(-c2cnc3[nH]ccc3c2)n1 [Example B-50, 3-({4-[1-isopropyl-3-(1H-pyrrolo[2,3-b]pyridin-5-yl)-1H-pyrazol-4-yl]pyrimidin-2-yl}amino)-propanenitrile]"
13,7.96,"Cc1n[nH]c2ncc(-c3nn(C(C)C)cc3-c3ccnc(NCCC#N)n3)cc12 [Example B-51, 3-({4-[1-isopropyl-3-(3-methyl-1H-pyrazolo[3,4-b]pyridin-5-yl)-1H-pyrazol-4-yl]pyrimidin-2-yl}amino)propanenitrile]"
14,8.03,"CC(=O)c1cc(-c2nn(C(C)C)cc2-c2ccnc(NCCC#N)n2)cnc1N [Example B-52, 3-({4-[3-(5-acetyl-6-aminopyridin-3-yl)-1-isopropyl-1H-pyrazol-4-yl]pyrimidin-2-yl}amino)propanenitrile]"
